Laboratory results published in patent publication US10059655B2, “Lipids and lipid compositions for the delivery of active agents” (priority 2013, dated 2018).

Assay: Measurement of mRNA encapsulation in lipid nanoparticles (Quant-iT Ribogreen)
Assay type: physicochemical
Settings: Leptin mRNA in LNP
Protocol: All equipment and disposable supplies are certified free of RNase activity by the manufacturer or rendered RNase free by use of the RNaseZap reagent (LifeTechnologies). mRNA is encapsulated at a cationic lipid amine to mRNA phosphate (N:P) molar ratio of 4:1. Lipids (cationic lipid, DSPC, cholesterol and lipidated PEG or stealth lipid) are dissolved in ethanol. The molar ratios are 40:10:38:2, respectively. The mixture is sonicated briefly, then gently agitated for 5 minutes and then maintained at 37° C. until use. mRNA is exchanged into citrate buffer pH 5.8-6.0 by use of Amicon Ultra-15 centrifugal concentrators, and the final concentration is adjusted to 0.5 mg/ml and held at 37° C. until use. An equal volume of lipids in ethanol, mRNA in citrate buffer, and citrate buffer alone are drawn into disposable syringes.
Tubing leading from syringes containing lipids and mRNA are attached to the T junction, and tubing leading from the syringe containing citrate buffer alone is paired with the tubing exiting the T-junction over a collection vessel containing a stir bar on an active stir plate. Syringes are placed in a syringe pump set to expel contents at a flow rate of 1 ml per minute. The pump is activated, and the collected mRNA in lipid nanoparticles is transferred to SnakeSkin dialysis tubing (10,000 MWCO, Thermo Scientific). Material is dialyzed against RNAse- and pyrogen-free 1× phosphate buffered saline overnight at 4° C.
Percent encapsulation of mRNA in lipid nanoparticles is determined using the Quant-iT Ribogreen RNA Assay kit (Life Technologies). The LNP-mRNA suspension is assayed in buffer (mRNA outside the particle), and buffer plus Triton X-100 detergent (total mRNA). The difference calculated is the mRNA inside the particle. Prepare a 1000 ng/mL stock from the RNA provided in the kit and use this to generate a standard curve (0 ng/ml, 15.63-1000 ng/ml) in TE and TE+0.75% Triton X-100. Prepare LNP-mRNA samples in TE buffer and TE buffer+0.75% Triton X-100 with appropriate dilution so that reading is in the range of standard curve (400-2,000 fold). In a 384-well plate (Costar non-treated #3573) add 0.04 ml of standard (in duplicate) or sample (in triplicate) per well. Dilute Ribogreen reagent 240-fold in TE buffer and add 0.06 ml per well. Mix contents of wells and measure fluorescence (excitation=480 nm, emission=520 nm). Subtract background values (no RNA) from standard and test sample values and determine the concentrations of RNA in the samples using the standard curves. Determine the percent encapsulation of the sample by dividing the difference in concentrations between sample+triton and sample in buffer alone by the sample+triton concentration.

Compound	% encapsulation mRNA Leptin [%]
CCCCC/C=C\C/C=C\CCCCCCCC(=O)OCC(COC(=O)CCCCCCC/C=C\C/C=C\CCCCC)COC(=O)CCN1CCN(C)CC1 [Example 2, (9Z,9′Z,12Z,12′Z)-2-(((3-(4-methylpiperazin-1-yl)propanoyl)oxy)methyl)propane-1,3-diyl bis(octadeca-9,12-dienoate)]	70.5
CCCCC/C=C\C/C=C\CCCCCCCC(=O)OCC(COC(=O)CCCCCCC/C=C\C/C=C\CCCCC)COC(=O)CCCN1CCCC1 [Example 3, (9Z,9′Z,12Z,12′Z)-2-(((4-(pyrrolidin-1-yl)butanoyl)oxy)methyl)propane-1,3-diyl bis(octadeca-9,12-dienoate)]	32.5
CCCCC/C=C\C/C=C\CCCCCCCC(=O)OCC(COC(=O)CCCCCCC/C=C\C/C=C\CCCCC)COC(=O)CCN1CCOCC1 [Example 10, (9Z,9′Z,12Z,12′Z)-2-(((3-morpholinopropanoyl)oxy)methyl)propane-1,3-diyl bis(octadeca-9,12-dienoate)]	1.9
CCCCC/C=C\C/C=C\CCCCCCCC(=O)OCC(COC(=O)CCCCCCC/C=C\C/C=C\CCCCC)COC(=O)CCCN(C)C [Example 11, (9Z,9′Z,12Z,12′Z)-2-(((4-(dimethylamino)butanoyl)oxy)methyl)propane-1,3-diyl bis(octadeca-9,12-dienoate)]	45.4
CCCCC/C=C\C/C=C\CCCCCCCC(=O)OCC(COC(=O)CCCCCC(CCCCCC)CCCCCC)COC(=O)OCCCN(CC)CC (stereo not shown) [Example 23, (9Z,12Z)-3-(((3-(diethylamino)propoxy)carbonyl)oxy)-2-(((7-hexyltridecanoyl)oxy)methyl)propyl octadeca-9,12-dienoate]	82.0
CCCCC/C=C\C/C=C\CCCCCCCC(=O)OCC(COC(=O)CCCCC(OCCCCCCCC)OCCCCCCCC)COC(=O)OCCCN(CC)CC (stereo not shown) [Example 27, (9Z,12Z)-3-((6,6-bis(octyloxy)hexanoyl)oxy)-2-((((3-(diethylamino)propoxy)carbonyl)oxy)methyl)propyl octadeca-9,12-dienoate]	80.8
CCCCC/C=C\C/C=C\CCCCCCCC(=O)OCC(COC(=O)CCC(OCCCCCCCC)OCCCCCCCC)COC(=O)C1CCN(C(C)C)CC1 (stereo not shown) [Example 33, 3-((4,4-bis(octyloxy)butanoyl)oxy)-2-(((9Z,12Z)-octadeca-9,12-dienoyloxy)methyl)propyl 1-isopropylpiperidine-4-carboxylate]	97.4
CCCCC/C=C\C/C=C\CCCCCCCC(=O)OCC(COC(=O)CCC(OCCCCCCCC)OCCCCCCCC)COC(=O)[C@@H]1CCCN1C (stereo partly drawn) [Example 37, (2S)-3-((4,4-bis(octyloxy)butanoyl)oxy)-2-(((9Z,12Z)-octadeca-9,12-dienoyloxy)methyl)propyl 1-methylpyrrolidine-2-carboxylate]	14.3
CCCCC/C=C\C/C=C\CCCCCCCC(=O)OCC(COC(=O)CCC(OCCCCCCCC)OCCCCCCCC)COC(=O)[C@H]1CCCN1C (stereo partly drawn) [Example 38, (2R)-3-((4,4-bis(octyloxy)butanoyl)oxy)-2-(((9Z,12Z)-octadeca-9,12-dienoyloxy)methyl)propyl 1-methylpyrrolidine-2-carboxylate]	9.6
CCCCC/C=C\C/C=C\CCCCCCCC(=O)OCC(COC(=O)CCC(OCCCCCCCC)OCCCCCCCC)COC(=O)C1CN(C)CCO1 (stereo not shown) [Example 39, 3-((4,4-bis(octyloxy)butanoyl)oxy)-2-(((9Z,12Z)-octadeca-9,12-dienoyloxy)methyl)propyl 4-methylmorpholine-2-carboxylate]	10.0
CCCCC/C=C\C/C=C\CCCCCCCC(=O)OCC(COC(=O)CCC(OCCCCCCCC)OCCCCCCCC)COC(=O)C1CCN(C)CC1 (stereo not shown) [Example 41, 3-((4,4-bis(octyloxy)butanoyl)oxy)-2-(((9Z,12Z)-octadeca-9,12-dienoyloxy)methyl)propyl 1-methylpiperidine-4-carboxylate]	97.5
CCCCC/C=C\C/C=C\CCCCCCCC(=O)OCC(COC(=O)CCC(OCCCCCCCC)OCCCCCCCC)COC(=O)C1CCCN(C)C1 (stereo not shown) [Example 42, 3-((4,4-bis(octyloxy)butanoyl)oxy)-2-(((9Z,12Z)-octadeca-9,12-dienoyloxy)methyl)propyl 1-methylpiperidine-3-carboxylate]	90.3
CCCCC/C=C\C/C=C\CCCCCCCC(=O)OCC(COC(=O)CCC(OCCCCCCCC)OCCCCCCCC)COC(=O)c1ccc(CN(CC)CC)cc1 (stereo not shown) [Example 44, 3-((4,4-bis(octyloxy)butanoyl)oxy)-2-(((9Z,12Z)-octadeca-9,12-dienoyloxy)methyl)propyl 4-((diethylamino)methyl)benzoate]	22.4
CCCCC/C=C\C/C=C\CCCCCCCC(=O)OCC(COC(=O)CCC(OCCCCCCCC)OCCCCCCCC)COC(=O)OCCCN1CCCC1 (stereo not shown) [Example 45, (9Z,12Z)-3-((4,4-bis(octyloxy)butanoyl)oxy)-2-((((3-(pyrrolidin-1-yl)propoxy)carbonyl)oxy)methyl)propyl octadeca-9,12-dienoate]	84.4
CCCCC/C=C\C/C=C\CCCCCCCC(=O)OCC(COC(=O)CCC(OCCCCCCCC)OCCCCCCCC)COC(=O)OCCCN1CCN(C)CC1 (stereo not shown) [Example 46, (9Z,12Z)-3-((4,4-bis(octyloxy)butanoyl)oxy)-2-((((3-(4-methylpiperazin-1-yl)propoxy)carbonyl)oxy)methyl)propyl octadeca-9,12-dienoate]	63.5
CCCCC/C=C\C/C=C\CCCCCCCC(=O)OCC(COC(=O)CCC(OCCCCCCCC)OCCCCCCCC)COC(=O)OC1CCN(C)C1 (stereo not shown) [Example 47, (9Z,12Z)-3-((4,4-bis(octyloxy)butanoyl)oxy)-2-(((((1-methylpyrrolidin-3-yl)oxy)carbonyl)oxy)methyl)propyl octadeca-9,12-dienoate]	90.4
CCCCC/C=C\C/C=C\CCCCCCCC(=O)OCC(COC(=O)CCC(OCCCCCCCC)OCCCCCCCC)COC(=O)OC1CN(C)C1 (stereo not shown) [Example 49, (9Z,12Z)-3-((4,4-bis(octyloxy)butanoyl)oxy)-2-(((((1-methylazetidin-3-yl)oxy)carbonyl)oxy)methyl)propyl octadeca-9,12-dienoate]	82.8
CCCCC/C=C\C/C=C\CCCCCCCC(=O)OCC(COC(=O)CCC(OCCCCCCCC)OCCCCCCCC)COC(=O)OC1CCN(CC)CC1 (stereo not shown) [Example 50, (9Z,12Z)-3-((4,4-bis(octyloxy)butanoyl)oxy)-2-(((((1-ethylpiperidin-4-yl)oxy)carbonyl)oxy)methyl)propyl octadeca-9,12-dienoate]	83.9
CCCCC/C=C\C/C=C\CCCCCCCC(=O)OCC(COC(=O)CCC(OCCCCCCCC)OCCCCCCCC)COC(=O)OCC1CCN(C)CC1 (stereo not shown) [Example 51, (9Z,12Z)-3-((4,4-bis(octyloxy)butanoyl)oxy)-2-(((((1-methylpiperidin-4-yl)methoxy)carbonyl)oxy)methyl)propyl octadeca-9,12-dienoate]	82.3
CCCCC/C=C\C/C=C\CCCCCCCC(=O)OCC(COC(=O)CCC(OCCCCCCCC)OCCCCCCCC)COC(=O)OC1CC(C)(C)N(C)C(C)(C)C1 (stereo not shown) [Example 52, (9Z,12Z)-3-((4,4-bis(octyloxy)butanoyl)oxy)-2-(((((1,2,2,6,6-pentamethylpiperidin-4-yl)oxy)carbonyl)oxy)methyl)propyl octadeca-9,12-dienoate]	32.2
CCCCC/C=C\C/C=C\CCCCCCCC(=O)OCC(COC(=O)CCC(OCCCCCCCC)OCCCCCCCC)COC(=O)NCCCN(C)C (stereo not shown) [Example 53, (9Z,12Z)-3-((4,4-bis(octyloxy)butanoyl)oxy)-2-((((3-(dimethylamino)propyl)carbamoyl)oxy)methyl)propyl octadeca-9,12-dienoate]	93.5
CCCCC/C=C\C/C=C\CCCCCCCC(=O)OCC(COC(=O)CCCCCCCCC(=O)OCCCCCCCC)COC(=O)C1(C)CCN(C)C1 (stereo not shown) [Example 56, 1-(3-((1,3-dimethylpyrrolidine-3-carbonyl)oxy)-2-(((9Z,12Z)-octadeca-9,12-dienoyloxy)methyl)propyl) 10-octyl decanedioate]	83.3
